Measured values published in patent publication US4824941A, “Specific antibody to the native form of 2'5'-oligonucleotides, the method of preparation and the use as reagents in immunoassays or for binding 2'5'-oligonucleotides in biological systems” (priority 1988, dated 1989).
Blank lines part the entries; values can stand above or below the molecule they belong to.

What was measured:
[1] = molecular target: specific antibody to 2'5'-oligo(A); assay: Competitive binding radio-immune assay (inhibition of binding of [32P]-labelled 2'5'A tetramer pCp probe to antibody, nitrocellulose filter); details: 25 μl, 0°, 1 hr; [32P] 2'5'A tetramer pCp probe
Method: The titers of the antisera are determined from the reciprocal of the dilution which gives 50% retention of the radioactivity to a nitrocellulose filter. The antiserum dilution is incubated in 25 μl of 20 mM KOAc, 10 mM HEPES-KOH, pH 7.4, 1.5 mM Mg(OAc)2 containing 1 mg/ml bovine serum albumin (BSA) and 5-6000 cpm of [^32 P] terminally labelled 2'5'A tetramer pCp (Amersham International: specific activity, approximately 3000 Ci/mmole). After incubation at 0° for 1 hr, the mixtures are diluted with 3 ml of ice cold 90 mM KCl, 20 mM Tris-HCl, pH 7.6 and passed through 25 mm discs of nitrocellulose (Millipore, type HAWP, 0.45 μ) with a filtration apparatus. The filters are washed with a further 2 portions of the same buffer, and retained radioactivity counted by Cerenkov radiation in a scintillation counter.
In the simple radio-immune assay described in Example 2, the unknown is determined by dilution of the radioactivity bound from the constant amount of known radioactive probe. […] This inhibition is a measure of the affinity of the related compound for the antibody, and will also indicate to what extent such compounds might interfere with the assay, if present in the material being analysed. […] A collection of 2'5'-adenylates and related compounds were prepared as follows. The dimer, trimer, tetramer and pentamer were obtained from the DEAE-cellulose fractionation of example 1. The tetramer was partially digested with bacterial alkaline phosphatase and the products separated by high performance liquid chromatography on a Partisil SAX column (Whatman), with 10 mM potassium phosphate buffer, pH 6.8, 20% ethanol and a gradient from 10 to 500 mM KCl. Acetyl and succinyl derivatives of the tetramer were obtained by reaction with acetic and succinic anhydride, according to the method of Example 1. Other compounds were from commercial sources.

2'5'-oligo(A) synthetase [2] = assay: 2'5'-oligo(A) synthetase in 3T3 cells, radio-immune assay of reaction product; format: cell-based, Swiss mouse; details: 3T3 cells treated overnight; 10 μM prostaglandin F2α or 100 u/ml interferon; none 50, background 0
Source text: (§1) Because of the extremely efficient reaction condition of cell-free systems, it is possible to assay low levels of 2'5'-oligo(A) synthetase. However, it is sometimes desirable to measure low levels from extremely small amounts of precious starting material. By coupling the extremely sensitive measurement of 2'5'-oligo(A) according to the methods of the present invention, with the enzymatic assay for 2'5'-oligo(A) polymerase, the enzyme can be determined with 10^5 -fold higher sensitivity than was previously possible. In the example, Swiss mouse 3T3 fibroblast cells are stimulated into a cell cycle by a variety of hormones and factors (for literature on this subject see the article "Criteria for the establishment of the biological significance of ribosomal protein phosphorylation" in Current Topics in Cellular Regulation, volume 21, 1982, pages 89-99, by J. Gordon, P. J. Nielsen, K. L. Manchester, H. Towbin, L. Jimenez de Asua and G. Thomas). […] One portion (198 μl) is analysed for conversion of the ATP to 2'5'-oligo(A) from the retention of radioactivity on an analytical DEAE cellulose column (see example 4). The other portion (2 μl) is diluted in the range 250 to 10,000-fold and the 2'5'-oligo(A) determined by the radioimmune assay (see example 3).

2'5'-oligo(A) synthetase [3] = assay: 2'5'-oligo(A) synthetase in 3T3 cells, conventional assay ([3H]-ATP to [3H]-2'5'-oligo(A)); format: cell-based, Swiss mouse; details: 3T3 cells treated overnight; 10 μM prostaglandin F2α or 100 u/ml interferon; none 556, background (197)
Source text: as §1

[4] = system: Friend mouse erythroleukemia cells (N46AP); assay: 2'5'-oligo(A) levels in differentiating Friend erythroleukemia cells, clone N46AP; format: cell-based; details: 1.4% (v/v) DMSO
Method: (§2) This is an example for cells growing in culture, but is universally applicable to any biological material: cell cultures, organs, tissues, bodily fluids such as blood, urine, cerebrospinal fluids, milk or any other suitably available material. Cells in a petri dish are rapidly washed with buffered saline (this step is dispensed with in the case of bodily fluids), then enough ice cold 5% trichloracetic acid (TCA) to cover the layer of cells (3 ml for a 7 cm diameter petri dish) and the dish is kept on ice for 5 min. The TCA and detached cells are removed and centrifuged to remove the insoluble material, and the dish and pellet are re-extracted with a similar volume of 5% TCA and the supernatants pooled. Alternatively, in the case of a cell suspension culture, the cells are pelleted by centrifugation at room temperature, the cells resuspended in a volume of buffered saline equal to the volume of the pellet, and approximately 10 volumes of 5% TCA are added. The insoluble material is removed by centrifugation and the pellet extracted with 1/2 the previous volume of 5% TCA. The supernatants are pooled. All operations with TCA are performed between 0° C. and 5° C. The pooled supernatants are freed of TCA by extraction with an equal volume of 30% (v/v) tri-N-octylamine in Freon 113 (Dow Chemicals). The upper aqueous phase is collected and the Freon phase re-extracted with 1/2 the preceeding volume of distilled water. Since biological material may contain ATP in the mM range, and it is desirable to measure 2'5'-oligo(A) in the nM range, it may be desirable to remove such 10^6 -fold excess of ATP, which might interfere with the assay. The ATP and other nucleotides which might interfere with the assay may then be removed chromatographically with DEAE cellulose (Whatman DE-52) equilibrated with 125 mM NH4 HCO3 (pH 7.8). The loading ratio is the same as for the preparative columns of example 1, but microcolumns of 200 μl are optimal for this analytical scale. The column is washed with 15 ml of the same buffer to remove the ATP and other unbound material. The 2'5'-oligo(A) is eluted with 2 ml of 0.5M NH4 HCO3, and the samples are lyophilized after addition of 1/10th volume of ethanol. The samples may be stored indefinitely in anhydrous form and re-dissolved with suitable volumes of solvent for the radio-immuno assay as described in example 3.
Friend mouse erythroleukemia cells can be induced to differentiate and become erythropoietic under the influence of a variety of reagents, especially dimethylsulfoxide. Such cells are also known to produce the enzyme 2'5'-oligo(A) synthetase. Before the method of the present invention, it was not possible to determine the 2'5'oligo(A) directly in these cells. The determination is described in this example. The Friend cells (clone FBU or N46AP) are grown in Dulbecco's modified Eagle's Medium containing 10% fetal calf serum, 2% (v/v) dimethylsulfoxide for FBU or 1.4% (v/v) DMSO for N46 AP and 1 mM glutamine. The cells are diluted with the same medium daily to maintain a density of 5.10^5 cells per ml. At various times, 30 ml cultures are collected and processed as described in the preceeding example. The lyophilized material is dissolved in the buffer corresponding to the reaction mixture for the assay, as in example 2, but containing 0.1 mg/ml of bovine serum albumin. The 2'5'-oligo(A) content is determined from the reduction of the binding of the [^32 P] labelled probe as in example 2 and 3.

[5] = system: Friend mouse erythroleukemia cells (FBU); assay: 2'5'-oligo(A) levels in differentiating Friend erythroleukemia cells, clone FBU; format: cell-based; details: 2% (v/v) DMSO
Method: as §2, with “The ATP and other nucleotides which might interfere with the assay may then be removed chromatographically with DEAE cellulose (Whatman DE-52) equilibrated with 125 mM NH4 HCO3 (pH 7.8). The loading ratio is the same as for the preparative columns of example 1, but microcolumns of 200 μl are optimal for this analytical scale. The column is washed with 15 ml of the same buffer to remove the ATP and other unbound material. The 2'5'-oligo(A) is eluted with 2 ml of 0.5M NH4 HCO3, and the samples are lyophilized after addition of 1/10th volume of ethanol. The samples may be stored indefinitely in anhydrous form and re-dissolved with suitable volumes of solvent for the radio-immuno assay as described in example 3.” left out
Friend mouse erythroleukemia cells can be induced to differentiate and become erythropoietic under the influence of a variety of reagents, especially dimethylsulfoxide. […] The 2'5'-oligo(A) content is determined from the reduction of the binding of the [^32 P] labelled probe as in example 2 and 3.

2'5'-oligo(A) synthetase [6] = details: source of value not given; read-out: Km of the enzyme; cited from earlier work

amount giving 50% inhibition of the maximal binding of the [^32 P]-labelled probe [1]: > 3,000,000 fmoles
Molecule: Nc1ncnc2c1ncn2[C@@H]1O[C@H](COP(=O)(O)O)[C@@H](O)[C@H]1O [AMP]

amount giving 50% inhibition of the maximal binding of the [^32 P]-labelled probe [1]: > 3,000,000 fmoles
Molecule: O=c1ccn([C@@H]2O[C@H](COP(=O)(O)OP(=O)(O)OP(=O)(O)O)[C@@H](O)[C@H]2O)c(=O)[nH]1 [UTP]

amount giving 50% inhibition of the maximal binding of the [^32 P]-labelled probe [1]: > 3,000,000 fmoles
Molecule: Nc1ncnc2c1ncn2[C@@H]1O[C@H](COP(=O)(O)OP(=O)(O)O)[C@@H](O)[C@H]1O [ADP]

Molecule: 5'-(phospho)3 (adenylyl 2'-5')2 adenosine [pppA(2'p5'A)2]
amount giving 50% inhibition of the maximal binding of the [^32 P]-labelled probe [1]: 2.5 fmol

Molecule: Nc1ccn([C@@H]2O[C@H](COP(=O)(O)O)[C@@H](OP(=O)(O)O)[C@H]2O)c(=O)n1 [pCp]
amount giving 50% inhibition of the maximal binding of the [^32 P]-labelled probe [1]: > 3,000,000 fmoles

Molecule: CCCCC[C@H](O)/C=C/[C@@H]1[C@@H](C/C=C\CCCC(=O)O)[C@@H](O)C[C@H]1O [prostaglandin F2α]
Radio-immune assay for 2'5'-oligo(A) (2'5'-oligo(A) synthetase [2]): 100 pmoles/assay
[^3 H]-ATP→[^3 H]-2'5'-oligo(A) (2'5'-oligo(A) synthetase [3]): 632 cpm/assay

Molecule: C[S+](C)[O-] [DMSO, dimethylsulfoxide]
2'5'-oligo(A) ([4]; day 1 post-DMSO (day 0: 7.5)): 7.8 fmoles/10^6 cells
2'5'-oligo(A) ([4]; day 2 post-DMSO): 4.3 fmoles/10^6 cells
2'5'-oligo(A) ([4]; day 3 post-DMSO): 17.5 fmoles/10^6 cells
2'5'-oligo(A) ([4]; day 5 post-DMSO): 63 fmoles/10^6 cells
2'5'-oligo(A) ([4]; day 6 post-DMSO): 53 fmoles/10^6 cells
2'5'-oligo(A) ([5]; day 1 post-DMSO (day 0: 2.6)): 28 fmoles/10^6 cells
2'5'-oligo(A) ([5]; day 2 post-DMSO): 28 fmoles/10^6 cells
2'5'-oligo(A) ([5]; day 4 post-DMSO): 20 fmoles/10^6 cells

amount giving 50% inhibition of the maximal binding of the [^32 P]-labelled probe [1]: > 3,000,000 fmoles
Molecule: Nc1ccn([C@@H]2O[C@H](COP(=O)(O)OP(=O)(O)OP(=O)(O)O)[C@@H](O)[C@H]2O)c(=O)n1 [CTP]

Molecule: Nc1ncnc2c1ncn2[C@@H]1O[C@H](COP(=O)(O)OP(=O)(O)OP(=O)(O)O)[C@@H](O)[C@H]1O [ATP]
Km (2'5'-oligo(A) synthetase [6]): ~1000 µM
amount giving 50% inhibition of the maximal binding of the [^32 P]-labelled probe [1]: > 3,000,000 fmoles

amount giving 50% inhibition of the maximal binding of the [^32 P]-labelled probe [1]: > 3,000,000 fmoles
Molecule: Nc1nc2c(ncn2[C@@H]2O[C@H](COP(=O)(O)OP(=O)(O)OP(=O)(O)O)[C@@H](O)[C@H]2O)c(=O)[nH]1 [GTP]

amount giving 50% inhibition of the maximal binding of the [^32 P]-labelled probe [1]: > 3,000,000 fmoles
Molecule: NC(=O)C1=CN([C@@H]2O[C@H](COP(=O)(O)OP(=O)(O)OC[C@H]3O[C@@H](n4cnc5c(N)ncnc54)[C@H](O)[C@@H]3O)[C@@H](O)[C@H]2O)C=CC1 [NADH]

Molecule: pA(2'p5'A)3
amount giving 50% inhibition of the maximal binding of the [^32 P]-labelled probe [1]: 25 fmol
